Reference: article PMC11995724, “Antibiotic target discovery by integrated phenotypic and activity-based profiling of electrophilic fragments” (Cell chemical biology, 2025)
Structures can show the parent of a compound that is named as a salt.

Assay: in vitro
Settings: human, hek293t cells
Protocol: Mammalian cytotoxicity measurement was performed using Cell Titer-Glo 2.0 Cell Viability Assay (Promega, G9243) according to the manufacturer protocol. In brief, mammalian cells were seeded into 384-well white plates (Greiner, 781080) and incubated at 37°C for one day. Compounds from the Cys-Library were dispensed into the assay plate using epMotion 96. The plates were then incubated at 37°C for two days. An equal volume of Cell Titer-Glo 2.0 reagent was added into each well of the assay plate using epMotion 96 and incubated at 22°C for 10 min, followed by luminescence measurement using a Cytation 5 plate reader (BioTek).

SMILES | viability at 48 h, 25 µM [%]
C=CC(=O)N(CC)CC(=O)N1CCNC(=O)C1c1cccs1 (stereo not shown) [3-G07, N-ethyl-N-{2-oxo-2-[3-oxo-2-(thiophen-2-yl)piperazin-1-yl]ethyl}prop-2-enamide] | 40
CC(Cl)C(=O)Nc1cc([N+](=O)[O-])ccc1Cl (stereo not shown) [6-I14, 2-chloro-N-(2-chloro-5-nitrophenyl)propanamide] | 117
CC(Cl)C(=O)Nc1ccc(Cl)c(S(=O)(=O)N(C)C)c1 (stereo not shown) [5-G21, 2-chloro-N-[4-chloro-3-(dimethylsulfamoyl)phenyl]propanamide] | 78.5
COc1ccc(C=C(C#N)C(=O)Nc2ccc(C(=O)O)cc2)cc1O [9-F10, 4-[2-cyano-3-(3-hydroxy-4-methoxyphenyl)prop-2-enamido]benzoic acid] | 120
CC(Cl)C(=O)N1CCCC1c1cccc2c1OCCO2 (stereo not shown) [7-L11, 2-chloro-1-[2-(2,3-dihydro-1,4-benzodioxin-5-yl)pyrrolidin-1-yl]propan-1-one] | 89.6
O=C(CCl)N1C[C@@H]2C[C@H]1CN2c1ccccc1 [5-E22, 2-chloro-1-[(1S,4S)-5-phenyl-2,5-diazabicyclo[2.2.1]heptan-2-yl]ethan-1-one] | 0.453
O=C(CCl)Nc1ccc(C(=O)O)cc1[N+](=O)[O-] [4-C21, 4-(2-chloroacetamido)-3-nitrobenzoic acid] | 63.3
Cc1cc(C(=O)CCl)c(C)n1-c1ccc(Cl)c(Cl)c1 [10-D18, 2-chloro-1-[1-(3,4-dichlorophenyl)-2,5-dimethyl-1H-pyrrol-3-yl]ethan-1-one] | 0.282
C=CC(=O)NCCc1nnc(C)s1 [3-G22, N-[2-(5-methyl-1,3,4-thiadiazol-2-yl)ethyl]prop-2-enamide] | 78.3
COc1ccc(C=C(C#N)C(=O)Nc2cccc(C)c2)cc1 [8-M03, 2-cyano-3-(4-methoxyphenyl)-N-(3-methylphenyl)prop-2-enamide] | 95.7
C=CC(=O)N(C)CC(=O)Nc1ccc(C)c(S(=O)(=O)N(C)C)c1 [3-G04, N-({[3-(dimethylsulfamoyl)-4-methylphenyl]carbamoyl}methyl)-N-methylprop-2-enamide] | 78.3
CC(C)C(NC(=O)CCl)c1ccc(F)cc1 (stereo not shown) [4-E13, 2-chloro-N-[1-(4-fluorophenyl)-2-methylpropyl]acetamide] | 1.68
Cc1ccc(NC(=O)C(C#N)=Cc2ccc(C)s2)cc1 [8-K13, 2-cyano-N-(4-methylphenyl)-3-(5-methylthiophen-2-yl)prop-2-enamide] | 77
CC(=O)NCCc1ccc(C(=O)C(C)Cl)cc1 (stereo not shown) [10-B03, N-{2-[4-(2-chloropropanoyl)phenyl]ethyl}acetamide] | 85.1
N#CC(=Cc1cccs1)C(=O)Nc1ccccc1Cl [9-L11, N-(2-chlorophenyl)-2-cyano-3-(thiophen-2-yl)prop-2-enamide] | 112
O=C(CCl)NCC1(c2ccccc2)CC1 [5-E15, 2-chloro-N-[(1-phenylcyclopropyl)methyl]acetamide] | 3.61
C=CC(=O)Nc1ccc(C(=O)N2CCC(C)(C)S(=O)(=O)CC2)cc1 [3-E04, N-[4-(7,7-dimethyl-1,1-dioxo-1lambda6,4-thiazepane-4-carbonyl)phenyl]prop-2-enamide] | 78.6
C=CC(=O)NCc1ccc(C(=O)NC2CC(=O)N(C)C2)cc1 (stereo not shown) [3-N22, N-(1-methyl-5-oxopyrrolidin-3-yl)-4-[(prop-2-enamido)methyl]benzamide] | 81.2
O=C(CCl)NC(c1ccccc1)C1CCCCC1 (stereo not shown) [6-E12, 2-chloro-N-[cyclohexyl(phenyl)methyl]acetamide] | 1.12
C=CC(=O)N1CCC(c2nnc3n2CCCC3)CC1 [2-J21, 1-(4-{5H,6H,7H,8H-[1,2,4]triazolo[4,3-a]pyridin-3-yl}piperidin-1-yl)prop-2-en-1-one] | 67.6
O=C(CCl)NCc1ccc(C(=O)N2CCOCC2)cc1 [5-L14, 2-chloro-N-{[4-(morpholine-4-carbonyl)phenyl]methyl}acetamide] | 67.7
CC(Cl)C(=O)N1CCN(C(C)C)c2ccccc2C1 (stereo not shown) [7-O07, 2-chloro-1-[1-(propan-2-yl)-2,3,4,5-tetrahydro-1H-1,4-benzodiazepin-4-yl]propan-1-one] | 81.6
CC(Cl)C(=O)Nc1ccc([N+](=O)[O-])cc1C(F)(F)F (stereo not shown) [6-D06, 2-chloro-N-[4-nitro-2-(trifluoromethyl)phenyl]propanamide] | 98.9
C=CC(=O)NCCc1csc(C)n1 [1-D13, N-[2-(2-methyl-1,3-thiazol-4-yl)ethyl]prop-2-enamide] | 106
CC(Cl)C(=O)NC(C)c1ccc(Cl)cc1Cl (stereo not shown) [5-M15, 2-chloro-N-[1-(2,4-dichlorophenyl)ethyl]propanamide] | 69
Cn1ncc(C(=O)CCl)n1 [10-J10, 2-chloro-1-(2-methyl-2H-1,2,3-triazol-4-yl)ethan-1-one] | 85.5

SMILES | viability at 48 h, 25 µM [%]
O=C(CCl)NC1CCN(C(=O)C2COc3ccccc3O2)CC1 (stereo not shown) [5-C09, 2-chloro-N-[1-(2,3-dihydro-1,4-benzodioxine-2-carbonyl)piperidin-4-yl]acetamide] | 1.13
CC(Cl)C(=O)Nc1ccc2c(c1)C(=O)c1ccccc1C2=O (stereo not shown) [4-G06, 2-chloro-N-(9,10-dioxo-9,10-dihydroanthracen-2-yl)propanamide] | 58.6
COc1ccc(-c2csc(NC(=O)CCl)n2)cc1 [4-N06, 2-chloro-N-[4-(4-methoxyphenyl)-1,3-thiazol-2-yl]acetamide] | 0.915
CN(C(=O)CCl)C1CCN(c2ccccc2F)C1=O (stereo not shown) [5-A18, 2-chloro-N-[1-(2-fluorophenyl)-2-oxopyrrolidin-3-yl]-N-methylacetamide] | 0.916
C=CC(=O)NC1CN(S(=O)(=O)c2ccc3c(c2)OCCO3)C1 [2-E11, N-[1-(2,3-dihydro-1,4-benzodioxine-6-sulfonyl)azetidin-3-yl]prop-2-enamide] | 79.7
C=CC(=O)N1CCOC(c2ccccc2Cl)C1 (stereo not shown) [1-P20, 1-[2-(2-chlorophenyl)morpholin-4-yl]prop-2-en-1-one] | 72.7
CC1=C(C#N)C(=O)N(C)C(=O)C1=Cc1ccc(-c2ccc(F)cc2)o1 [9-I18, 5-{[5-(4-fluorophenyl)furan-2-yl]methylidene}-1,4-dimethyl-2,6-dioxo-1,2,5,6-tetrahydropyridine-3-carbonitrile] | 125
C=CC(=O)NCc1ccsc1-n1cccc1 [1-K08, N-{[2-(1H-pyrrol-1-yl)thiophen-3-yl]methyl}prop-2-enamide] | 153
COC1CCC(N(Cc2cc(C)oc2C)C(=O)CCl)CC1 (stereo not shown) [5-O20, 2-chloro-N-[(2,5-dimethylfuran-3-yl)methyl]-N-(4-methoxycyclohexyl)acetamide] | 2.21
COc1ccc(N(C(=O)CCl)C2CCS(=O)(=O)C2)cc1 (stereo not shown) [5-I20, 2-chloro-N-(1,1-dioxo-1lambda6-thiolan-3-yl)-N-(4-methoxyphenyl)acetamide] | 2.54
CC(Cl)C(=O)N1CCN(c2ccccc2)CC1 (stereo not shown) [4-E14, 2-chloro-1-(4-phenylpiperazin-1-yl)propan-1-one hydrochloride] | 66.3
C=CC(=O)N1CCOC2(CCCCCC2)C1 [1-L08, 1-{1-oxa-4-azaspiro[5.6]dodecan-4-yl}prop-2-en-1-one] | 73.9
O=C(CCl)NCCOc1ccc2ccccc2c1 [6-A14, 2-chloro-N-[2-(naphthalen-2-yloxy)ethyl]acetamide] | 0.0621
N#CC(=Cc1ccc(C#N)cc1)C(=O)Nc1cccc(Cl)c1Cl [8-J05, 2-cyano-3-(4-cyanophenyl)-N-(2,3-dichlorophenyl)prop-2-enamide] | 112
COc1ccc(NC(=O)C(C#N)=Cc2ccco2)cc1 [9-F19, 2-cyano-3-(furan-2-yl)-N-(4-methoxyphenyl)prop-2-enamide] | 94.6
Cc1cn2c(C=C(C#N)C(=O)Nc3c(C)cccc3C)c(C)nc2s1 [9-N19, 2-cyano-3-{2,6-dimethylimidazo[2,1-b][1,3]thiazol-5-yl}-N-(2,6-dimethylphenyl)prop-2-enamide] | 94.4
CC(Cl)C(=O)Nc1c(Cl)cc(Cl)cc1Cl (stereo not shown) [6-K09, 2-chloro-N-(2,4,6-trichlorophenyl)propanamide] | 115
Cc1nc(C)c(S(=O)(=O)N2CCSSCC2)s1 [10-M18, 5-[(2,4-dimethyl-1,3-thiazol-5-yl)sulfonyl]-1,2,5-dithiazepane] | 90.2
CNC(=O)c1ccc(C2CCCCN2C(=O)C(C)Cl)n1C (stereo not shown) [7-N15, 5-[1-(2-chloropropanoyl)piperidin-2-yl]-N,1-dimethyl-1H-pyrrole-2-carboxamide] | 97.6
C=CC(=O)NC1CCCN(C(=O)CCC(F)(F)F)C1 (stereo not shown) [1-B03, N-[1-(4,4,4-trifluorobutanoyl)piperidin-3-yl]prop-2-enamide] | 108
CC(Cl)C(=O)NC1(c2ccccc2)CCOCC1 (stereo not shown) [7-A11, 2-chloro-N-(4-phenyloxan-4-yl)propanamide] | 108
O=C(CCl)Nc1cc(C2CC2)nn1-c1ccccc1 [4-I15, 2-chloro-N-(3-cyclopropyl-1-phenyl-1H-pyrazol-5-yl)acetamide] | 1.44
C=CC(=O)N1CCC(C(=O)N2CCN(c3ccnc(C)n3)CC2)CC1 [2-L06, 1-{4-[4-(2-methylpyrimidin-4-yl)piperazine-1-carbonyl]piperidin-1-yl}prop-2-en-1-one] | 88.5
C=CC(=O)N(Cc1noc2c1CCCC2)CC1CCCC1 [1-H13, N-(cyclopentylmethyl)-N-[(4,5,6,7-tetrahydro-1,2-benzoxazol-3-yl)methyl]prop-2-enamide] | 113
C=CC(=O)NCCn1nnnc1C [2-A03, N-[2-(5-methyl-1H-1,2,3,4-tetrazol-1-yl)ethyl]prop-2-enamide] | 110
O=C(CCl)Nc1nc(-c2cccs2)cs1 [5-D18, 2-chloro-N-[4-(thiophen-2-yl)-1,3-thiazol-2-yl]acetamide] | 0.312
